Experimental data as given in the NIST ThermoML archive (doi:10.1016/j.fluid.2007.07.017).

Experiment: xn = mol fraction of the nth substance listed
Conditions: Liquid, Vibrating tube method

C=C [ethene] + CCCCO
Conditions | mass density [kg/m3]
283.65 K, x1 = 0.17 | 781.4
283.65 K, x1 = 0.224 | 767.7
283.65 K, x1 = 0.322 | 743.7
283.65 K, x1 = 0.401 | 718.9
283.65 K, x1 = 0.47 | 695.8
283.65 K, x1 = 0.545 | 660.9
283.65 K, x1 = 0.98 | 323.2
283.65 K, x1 = 0.99 | 296.6
283.65 K, x1 = 0.994 | 287
290.8 K, x1 = 0.206 | 768.3
290.8 K, x1 = 0.265 | 752.1
290.8 K, x1 = 0.339 | 732
290.8 K, x1 = 0.43 | 707.5
290.8 K, x1 = 0.528 | 664.6
290.8 K, x1 = 0.622 | 624.4
290.8 K, x1 = 0.655 | 601.6
290.8 K, x1 = 0.691 | 585
290.8 K, x1 = 0.745 | 527.5
